This note sets out measurements from US6921772B2, “Methods and compositions for the treatment of chronic lymphocytic leukemia” (Salmedix, Inc., priority 1998, dated 2005).

Series [1] relates to isolated mononuclear cells from the peripheral blood of the patient. Nature of the series: FITC annexin / propidium iodide flow cytometry of the patient's isolated mononuclear cells after etodolac. Type of series: in vivo, human. The following applies: baseline and daily for three days after administration, as lymphocyte count dropped. Here is the method:
To examine the possibility that a metabolite of etodolac or a serum factor may be necessary to achieve the clinical effect, the in vivo percentages of viable, apoptotic and late apoptotic or necrotic cells of isolated mononuclear cells were measured by flow cytometry using FITC annexin and propridium iodide assay. During early apoptosis and preceding DNA fragmentation, phosphatydylserine becomes exposed and bond by annexin V. Later in apoptosis and in cell necrosis, cells also become permeable to propidium iodide. FITC labeled […] and propidium iodide are easily detected by flow cytometry. Mononuclear cells were isolated from the peripheral blood of the patient by differential centrifugation on ficoll-Hypaque at baseline and then daily for three additional days after administration of etodolac. […] However, the percentage of viable cells increased and the percentage of late apoptotic or necrotic cells decreased. […] To examine the possibility that etodolac might enhance the clearance of leukemic lymphocytes by enhancing phagocytosis by macrophages, TAMRA stained isolated mononuclear cells from the patient were incubated with normal human adherent mononuclear cells in the presence of naproxen or etodolac in vitro. After an overnight incubation, the adherent cells were isolated and analyzed by flow cytometry for uptake of TAMRA stained cells from the patient. No increase in the uptake of the stained leukemic mononuclear cells by the normal adherent cells could be detected for etodolac compared to naproxen. To test the possibility that a metabolite of etodolac could be responsible for the effect, serum from the patient was collected free of drug, after receiving naproxen 375 mg bid for two days and after receiving etodolac 400 mg bid for two days, and tested in the above manner.

Series [2] concerns patient with B-cell CLL. Nature of the series: In vivo administration of NSAIDs to a B-cell CLL patient: blood cell counts.
Series [3] deals with normal human adherent mononuclear cells. Nature of the series: Uptake of TAMRA stained patient mononuclear cells by normal adherent mononuclear cells (phagocytosis), flow cytometry. It counts as cell-based. Here is the method: To examine the possibility that a metabolite of etodolac or a serum factor may be necessary to achieve the clinical effect, the in vivo percentages of viable, apoptotic and late apoptotic or necrotic cells of isolated mononuclear cells were measured by flow cytometry using FITC annexin and propridium iodide assay. During early apoptosis and preceding DNA fragmentation, phosphatydylserine becomes exposed and bond by annexin V. Later in apoptosis and in cell necrosis, cells also become permeable to propidium iodide. FITC labeled […] and propidium iodide are easily detected by flow cytometry. Mononuclear cells were isolated from the peripheral blood of the patient by differential centrifugation on ficoll-Hypaque at baseline and then daily for three additional days after administration of etodolac. […] However, the percentage of viable cells increased and the percentage of late apoptotic or necrotic cells decreased. […] After an overnight incubation, the adherent cells were isolated and analyzed by flow cytometry for uptake of TAMRA stained cells from the patient. No increase in the uptake of the stained leukemic mononuclear cells by the normal adherent cells could be detected for etodolac compared to naproxen. […]
On the technique in general: A flow cytometer gives signals particle by particle.

Where [4] appears, read: B-cell CLL patient, count after NSAID course, etodolac 300 mg BID, mean +/- SD of 3 experiments.

With `CCc1cccc2c3c([nH]c12)C(CC)(CC(=O)O)OCC3` (racemic) [Etodolac, 1,8-diethyl-1,3,4,9-tetrahydro[3,4-b]-indole-1-acetic acid], in series [1], the “percentage of apoptotic cells” value is “remained the same”, the “percentage of late apoptotic or necrotic cells” value is on record as “decreased” and the “percentage of viable cells” value is “increased”. Further, in series [2] (setting [4]), the “Lymphocyte Ct. x E-3” value was determined as 20.68 x E-3, the “Neutrophil Count x E-3” value stood at 3.58 x E-3 and the “WBC Count x E-3” value is recorded as 25.27 x E-3. Moreover, in series [2] (Oct. 28, 1997, after 300 mg BID Oct. 25-27, 1997), the “platelet count (in words)” value is reported as “normal”. In series [2] (Oct. 28, 1997, after 300 mg BID Oct. 25-27, 1997, count before treatment 27.44×E3), this compound registered a lymphocyte count of 6.70 ×E3. The “white blood cell count” value in series [2] (Oct. 28, 1997, after 300 mg BID Oct. 25-27, 1997, count before treatment 34.3×E3) is reported as 13.40 ×E3. Further, in series [2] (summary of Table 1), the “effect on lymphocyte count of the patient (in words)” value (“effect on lymphocyte count” for short) is “substantial reductions”, the “effect on platelet count (in words)” value is “increased significantly” and the “effect on white blood cell count of the patient (in words)” value (from here on “effect on white blood cell count”) is recorded as “substantial reductions”. Besides, the “uptake of stained leukemic mononuclear cells by normal adherent cells” value in series [3] (drug present in vitro, overnight incubation, compared to naproxen) is “No increase”. In addition, the “phagocytosis of lymphocytes with patient serum” value in series [3] (serum collected after etodolac 400 mg bid for two days, compared with drug-free serum and serum after naproxen 375 mg bid) is “No enhancement”.

Take `O=C(O)Cc1ccccc1Nc1c(Cl)cccc1Cl` [Diclofenac, diclofenac]: in series [2] (summary of Table 1), the “effect on lymphocyte count” value is recorded as “relatively little impact” and the “effect on white blood cell count” value is on record as “relatively little impact”.

On to `CC(C)Cc1ccc(C(C)C(=O)O)cc1` (stereo not shown) [Ibuprofen, ibuprofen], for which, in series [2] (summary of Table 1), the “effect on lymphocyte count” value was “relatively little impact”.

`COc1ccc2c(c1)c(CC(=O)O)c(C)n2C(=O)c1ccc(Cl)cc1` [Indomethacin, indomethacin]: in series [2] (summary of Table 1), the “effect on lymphocyte count” value is recorded as “relatively little impact” and the “effect on white blood cell count” value is “relatively little impact”.

Take `COc1ccc2cc(CCC(C)=O)ccc2c1` [Nabumetone, nabumetone]: in series [2] (summary of Table 1), the “effect on lymphocyte count” value was “relatively little impact” and the “effect on white blood cell count” value is reported as “relatively little impact”.

`COc1ccc2cc([C@H](C)C(=O)O)ccc2c1` [Naproxen, naproxen]: in series [2] (summary of Table 1), the “effect on lymphocyte count” value was “relatively little impact” and the “effect on white blood cell count” value was “relatively little impact”.

In the case of `O=C(O)CCc1nc(-c2ccccc2)c(-c2ccccc2)o1` [Oxaprozin, oxaprozin], in series [2] (summary of Table 1), the “effect on lymphocyte count” value is recorded as “relatively little impact” and the “effect on white blood cell count” value is given as “relatively little impact”.

On to `CN1C(C(=O)Nc2ccccn2)=C(O)c2ccccc2S1(=O)=O` [Piroxicam, piroxicam], for which, in series [2] (summary of Table 1), the “effect on lymphocyte count” value is reported as “relatively little impact” and the “effect on white blood cell count” value is on record as “relatively little impact”.

For `CC1=C(CC(=O)O)c2cc(F)ccc2/C1=C\c1ccc([S+](C)[O-])cc1` (stereo not shown) [Sulindac, sulindac], in series [2] (summary of Table 1), the “effect on lymphocyte count” value is recorded as “relatively little impact” and the “effect on white blood cell count” value is “relatively little impact”.

Take `Cc1ccc(C(=O)c2ccc(CC(=O)O)n2C)cc1` [Tolmetin, tolmetin]: in series [2] (summary of Table 1), the “effect on lymphocyte count” value is “relatively little impact” and the “effect on white blood cell count” value is “relatively little impact”.
